The values below come from PubChem BioAssay AID493137 (Sanford-Burnham Center for Chemical Genomics, 2011).

Several values for one entry are separate records, joined by “and”; a condition that tells them apart may be missing. Equal entries are not always repeated. Activity calls are given as the source filed them.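 How the source made its calls: active means compounds whose mean IC50 is under 100 micromolar in the phosphatase inhibition dose series; inactive means the rest.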

Chain of Intestinal-type alkaline phosphatase (Homo sapiens) (P09923 whole entry, looked up): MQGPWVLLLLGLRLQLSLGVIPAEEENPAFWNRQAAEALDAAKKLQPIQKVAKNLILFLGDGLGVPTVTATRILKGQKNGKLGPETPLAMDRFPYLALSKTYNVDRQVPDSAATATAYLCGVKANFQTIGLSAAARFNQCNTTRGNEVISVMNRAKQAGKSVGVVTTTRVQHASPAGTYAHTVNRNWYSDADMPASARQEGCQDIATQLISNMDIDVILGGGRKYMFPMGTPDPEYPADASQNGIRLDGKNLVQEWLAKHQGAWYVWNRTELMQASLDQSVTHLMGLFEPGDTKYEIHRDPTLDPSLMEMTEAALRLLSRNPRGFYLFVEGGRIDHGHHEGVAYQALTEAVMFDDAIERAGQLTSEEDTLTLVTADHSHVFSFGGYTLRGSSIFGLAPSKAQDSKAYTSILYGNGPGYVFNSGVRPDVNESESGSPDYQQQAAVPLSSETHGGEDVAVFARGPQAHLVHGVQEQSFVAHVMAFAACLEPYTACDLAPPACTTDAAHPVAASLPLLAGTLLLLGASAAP

This experiment addresses Intestinal-type alkaline phosphatase (Homo sapiens) (UniProt P09923). The experiment in a line: human IAP inhibitors, SAR follow-up, biochemical, luminescence (AID 493137). The conditions noted are these: purified human IAP, CDP-Star luminescence, 30 min.
What is called IC50 is the midpoint of a concentration-inhibition curve. As to `COC(=O)/C=C1/S/C(=N/NC(=O)c2ccccc2OC)NC1=O`, the IC50 was > 100 µM (inactive).

As to `COc1ccc(-c2csc(Nc3cccc4ccccc34)n2)cc1F`, the IC50 is > 100 µM (inactive).

In the case of `Oc1ccc(-c2csc(Nc3ccccc3)n2)c(O)c1`, the IC50 was > 100 µM (inactive).

For the compound `O=[N+]([O-])c1ccccc1NC(=S)NN=Cc1ccc(O)c(O)c1`, the IC50 is 76 µM.

On to `Cc1cccc(C)c1NC(=S)N/N=C/c1ccc(O)c(O)c1O`, for which the IC50 was > 100 µM (inactive).

On to `COC(=O)/C=C1/S/C(=N/NC(=O)c2ccccc2)NC1=O`, for which the IC50 is > 100 µM (inactive).

Regarding `Cc1ccc(Cl)cc1Nc1nc(-c2ccc(O)c(O)c2)cs1`, the IC50 is 24.4 µM.

Consider `Cc1cccc2sc(NNC(=O)c3ccc4c(c3)OCCO4)nc12`, for which the IC50 was > 100 µM (inactive).

As to `O=S(=O)(Nc1ncccn1)c1ccc(NC(=S)NCCC(c2ccccc2)c2ccccc2)cc1`, the IC50 was > 100 µM (inactive).

With `NS(=O)(=O)c1ccc(Nc2nc(-c3ccc(O)c(O)c3)cs2)cc1`, the 50% inhibitory concentration (IC50) was 45.1 µM.

`COc1cccc(Nc2nc(-c3ccc(O)cc3)cs2)c1`: the IC50 is > 100 µM (inactive).

For `COc1ccc(NC(=S)NCCC(c2ccccc2)c2ccccc2)cc1`, the IC50 was > 100 µM (inactive).

In the case of `CCN(CC)S(=O)(=O)c1ccc(-c2csc(=Nc3cccc4ccccc34)n2C)cc1`, the IC50 is > 100 µM (inactive).

For `Cc1cccc(NC(=S)NNC(=O)c2ccc3c(c2)OCO3)c1`, the IC50 was > 100 µM (inactive).

With `O=[N+]([O-])c1ccc(NC(=S)NCCC(c2ccccc2)c2ccccc2)cc1`, the IC50 was > 100 µM (inactive).

Take `CCOc1cc(C=N/N=C2/NC(=O)C(CC(=O)O)S2)ccc1OCc1ccccc1Cl` (stereo unspecified): the IC50 is > 100 µM (inactive).

As for `Cc1ccc(Nc2nc(-c3ccc(O)cc3O)cs2)cc1`, the IC50 is > 100 µM (inactive).

Regarding `COc1ccc(Cl)cc1Nc1nc(-c2ccc(O)c(O)c2)cs1`, the IC50 was > 100 µM (inactive).

In the case of `COc1cc(C(=O)NNC(=S)Nc2ccc(S(N)(=O)=O)cc2)cc(OC)c1OC`, the IC50 was > 100 µM (inactive).

Turning to `Oc1ccc(-c2csc(Nc3ccc(F)cc3)n2)cc1O`, the IC50 is > 100 µM (inactive).

As for `COC(=O)/C=C1/S/C(=N/NC(=O)c2ccc(OC)cc2)NC1=O`, the IC50 is > 100 µM (inactive).

On to `COc1cc(/C=N/N=C2\NC(=O)C(CC(=O)O)S2)cc(OC)c1OC` (stereo unspecified), for which the IC50 is > 100 µM (inactive).

Regarding `Cc1ccc2nc(NNC(=O)c3ccc4c(c3)OCCO4)sc2c1`, the IC50 was > 100 µM (inactive).

Take `Cc1c(Cl)cccc1Nc1nc(-c2ccc(O)c(O)c2)cs1`: the half-inhibitory concentration (IC50) was > 100 µM (inactive) and 96.6 µM.

`Cc1ccc(Nc2nc(-c3ccc(O)c(O)c3)cs2)cc1`: the IC50 is > 100 µM (inactive).

On to `COC(=O)/C=C1/S/C(=N/N=Cc2ccc(N(C)C)cc2)NC1=O`, for which the IC50 is > 100 µM (inactive).

As for `COC(=O)C/C=N/N=C1\NC(=O)/C(=C/C(=O)O)S1`, the IC50 was > 100 µM (inactive).

As for `Cc1cccc(Nc2nc(-c3ccc(O)c(C(N)=O)c3)cs2)c1`, the IC50 is > 100 µM (inactive).

With `CCOc1cc(C=NNC(=S)NC2CCCCC2)ccc1O`, the IC50 is > 100 µM (inactive).

In the case of `COc1cc([N+](=O)[O-])ccc1NC(=S)NNC(=O)c1ccc2c(c1)OCO2`, the IC50 was > 100 µM (inactive).

With `FC(F)(F)c1cccc(NC(=S)NCCC(c2ccccc2)c2ccccc2)c1`, the IC50 was > 100 µM (inactive).

Take `Cc1cccc(NC(=S)NN=Cc2ccc3c(c2)OCO3)c1`: the IC50 is > 100 µM (inactive).

As for `Oc1ccc(Nc2nc(-c3ccc(O)c(O)c3)cs2)cc1`, the IC50 was 11.6 µM.

For `Cc1ccc(Nc2nc(-c3ccc(O)cc3O)cs2)cc1F`, the IC50 was > 100 µM (inactive).

Consider `Cc1ccc(Nc2nc(-c3ccc(O)c(C(N)=O)c3)cs2)cc1`, for which the IC50 is > 100 µM (inactive).

Turning to `COc1ccc(C=Nn2c(=S)n(C)c3ccccc32)cc1OC`, the IC50 was > 100 µM (inactive).

`CCOc1cc(/C=N/N=C2\NC(=O)C(CC(=O)O)S2)ccc1O` (stereo unspecified): the IC50 is > 100 µM (inactive).

`COc1ccc(C=NNC(=S)Nc2ccccc2[N+](=O)[O-])cc1O`: the IC50 is > 100 µM (inactive).

For `Cc1ccc(-c2ccc(/C=N/N=C3\NC(=O)C(CC(=O)O)S3)o2)c([N+](=O)[O-])c1` (stereo unspecified), the IC50 is > 100 µM (inactive).

Consider `Oc1ccc(-c2csc(Nc3cccc4ccccc34)n2)cc1O`, for which the IC50 is 33 µM and 46.8 µM.

For `COc1cc(/C=N/N=C2/SCC(=O)N2c2ccc(O)cc2)ccc1O`, the IC50 was > 100 µM (inactive).

Consider `NS(=O)(=O)c1ccc(Nc2nc(-c3ccc(O)cc3O)cs2)cc1`, for which the IC50 was > 100 µM (inactive).

On to `Cc1cc(C)cc(Nc2nc(-c3ccc(O)cc3O)cs2)c1`, for which the IC50 was > 100 µM (inactive).

In the case of `COc1ccc(-c2csc(Nc3cccc4ccccc34)n2)cc1`, the IC50 was > 100 µM (inactive).

In the case of `Cc1cccc(Nc2nc(-c3ccc(O)c(O)c3)cs2)c1`, the IC50 is > 100 µM (inactive).

`CN(C)S(=O)(=O)c1cccc(NC(=S)NN=Cc2ccc(O)c(O)c2O)c1`: the IC50 is > 100 µM (inactive).

Regarding `O=S(=O)(c1ccc(NC(=S)N/N=C/c2ccc(O)c(O)c2)cc1)N1CCOCC1`, the IC50 was > 100 µM (inactive).

Take `O=S(=O)(c1ccc(NC(=S)N/N=C/c2ccc(O)c(O)c2O)cc1)N1CCOCC1`: the IC50 was > 100 µM (inactive).

In the case of `CC(=NNC(=S)Nc1ccccc1)c1ccc2c(c1)OCO2`, the IC50 was > 100 µM (inactive).

As to `COC(=O)/C=C1\S/C(=N/N=C/CC(=O)OC)NC1=O`, the IC50 is > 100 µM (inactive).

As to `COC(=O)/C=C1/S/C(=N/NC(=O)c2ccc(Cl)cc2Cl)NC1=O`, the IC50 was > 100 µM (inactive).

Turning to `COc1cc(C=NNC(=S)Nc2cccc(C(=O)O)c2)ccc1O`, the IC50 is > 100 µM (inactive).

For `S=C(NCCC(c1ccccc1)c1ccccc1)Nc1ccc(Cl)cc1Cl`, the IC50 is > 100 µM (inactive).

`COC(=O)/C=C1\S/C(=N/N=C/c2ccc(Cl)cc2)NC1=O`: the IC50 was > 100 µM (inactive).

As for `CCc1ccccc1Nc1nc(-c2ccc(O)c(O)c2)cs1`, the IC50 was 17.8 µM and 14.5 µM.

As for `O=[N+]([O-])c1ccccc1NC(=S)N/N=C/c1ccc(O)c(O)c1O`, the IC50 is > 100 µM (inactive).

`COC(=O)/C=C1\SC(N=Nc2c(O)[nH]c3ccccc23)=NC1=O`: the IC50 is > 100 µM (inactive).

In the case of `Cc1ccc(C)c(Nc2nc(-c3ccc(O)cc3O)cs2)c1`, the IC50 was > 100 µM (inactive).

For the compound `COc1ccc(/C=N/N=C2\NC(=O)C(CC(=O)O)S2)c(OC)c1` (stereo unspecified), the IC50 is > 100 µM (inactive).

In the case of `N#CCCn1cc(/C=N/N=C2/NC(=O)C(CC(=O)O)S2)c(-c2ccc(F)cc2)n1` (stereo unspecified), the IC50 is > 100 µM (inactive).

For the compound `Cc1cc(=O)oc2cc(NC(=S)NCCC(c3ccccc3)c3ccccc3)ccc12`, the IC50 was > 100 µM (inactive).

As to `COc1ccc(C=NN=C2SC(CC(=O)O)C(=O)N2c2ccc(O)cc2)cc1` (stereo unspecified), the IC50 is > 100 µM (inactive).

As for `Cc1ccc(Nc2nc(-c3ccc(O)cc3O)cs2)cc1C`, the IC50 was > 100 µM (inactive).

Consider `COc1cc([N+](=O)[O-])ccc1NC(=S)NCCC(c1ccccc1)c1ccccc1`, for which the IC50 was > 100 µM (inactive).

In the case of `COc1ccc(C(=O)NNC(=S)NC2CCCCC2)cc1OC`, the IC50 is > 100 µM (inactive).

Consider `Cc1ccc2sc(NNC(=O)c3ccc4c(c3)OCCO4)nc2c1C`, for which the IC50 was > 100 µM (inactive).

On to `Cn1c(=S)n(N=Cc2ccc3c(c2)OCO3)c2ccccc21`, for which the IC50 is > 100 µM (inactive).

For `COc1cc(C=NNC(=S)Nc2cccc(S(=O)(=O)N(C)C)c2)ccc1O`, the IC50 is > 100 µM (inactive).

`COc1ccc(/C=N/N=C2/NC(=O)C(CC(=O)O)S2)cc1OC` (stereo unspecified): the IC50 is > 100 µM (inactive).

In the case of `COC(=O)/C=C1/S/C(=N/NC(=O)c2ccccc2C)NC1=O`, the IC50 was > 100 µM (inactive).

Regarding `CC(C)(C)c1ccc(/C=N/N=C2\NC(=O)C(CC(=O)O)S2)cc1` (stereo unspecified), the IC50 is > 100 µM (inactive).

With `COc1cc(C=NNC(=S)Nc2cccc(S(=O)(=O)N(C)C)c2)cc(OC)c1O`, the IC50 is > 100 µM (inactive).

Consider `O=C(O)CC1S/C(=N/N=C/c2ccco2)NC1=O` (stereo unspecified), for which the IC50 was > 100 µM (inactive).

Consider `CCOc1ccc(Nc2nc(-c3ccc(O)c(O)c3)cs2)cc1`, for which the IC50 was > 100 µM (inactive).

Take `COc1cc(C=NN=C2SC(CC(=O)O)C(=O)N2c2ccc(O)cc2)ccc1O` (stereo unspecified): the IC50 is > 100 µM (inactive).

As for `Cc1ccc(Nc2nc(-c3ccc(O)c(O)c3)cs2)cc1F`, the IC50 is > 100 µM (inactive).
